Four molecules from ChEMBL document CHEMBL1649161, “Pharmacokinetics of EDP-420 after ascending single oral doses in healthy adult volunteers” (Antimicrob Agents Chemother, 2009) can be followed below.

Common to all, as to assay type: ADME, organism-based
The nature of data set [1]: Cmax in healthy human at 400 mg, po administered as single dose. Also noted: dose 400 mg, route oral. To be noted: in vivo.
Data set [2] is described as follows: AUC (0 to infinity) in healthy human at 400 mg, po administered as single dose. Also noted: dose 400 mg, time infinity, route oral. The settings on record: plasma.
A short description of data set [3]: Half life in healthy human at 400 mg, po administered as single dose. The settings on record: in vivo.
Data set [4] in a line: Distribution half life in healthy human at 400 mg, po administered as single dose. To be noted: in vivo.
A short description of data set [5]: Terminal half life in healthy human at 400 mg, po administered as single dose. To be noted: in vivo.
Data set [6] can be described thus: Cmax in healthy human at 500 mg, po administered as single dose. Also noted: dose 500 mg, route oral. To be noted: in vivo.
Data set [7] can be described thus: AUC (0 to infinity) in healthy human at 500 mg, po administered as single dose. Also noted: dose 500 mg, route oral, time infinity. The settings on record: plasma.
A short description of data set [8]: Terminal half life in healthy human at 500 mg, po administered as single dose. The settings on record: in vivo.

Usually Cmax stands for the highest concentration seen after dosing. Broadly, the AUC(0-inf) is total exposure, with the tail of the curve extrapolated. Read a low AUC(0-inf) as low exposure. By half-life is commonly meant the time in which the quantity being followed falls by half. Low readings indicate rapid decline, high ones slow decline. In data set [1], `CC[C@H]1OC(=O)[C@H](C)[C@@H](O[C@H]2C[C@@](C)(OC)[C@@H](O)[C@H](C)O2)[C@H](C)[C@@H](O[C@@H]2O[C@H](C)C[C@H](N(C)C)[C@H]2O)[C@](C)(OC)C[C@@H](C)C(=O)[C@H](C)[C@@H](O)[C@]1(C)O` [CLARITHROMYCIN] registered a Cmax of 780 ng/mL. Further, the AUC(0-inf) in data set [2] is 7520 ng·h/mL. Further, the half-life in data set [3] is 3.89 h.

In turn, `CC[C@H]1OC(=O)[C@H](C)C(=O)[C@H](C)[C@@H](O[C@@H]2O[C@H](C)C[C@H](N(C)C)[C@H]2O)[C@](C)(OC)C[C@@H](C)C(=O)[C@H](C)[C@H]2N(CCCCn3cnc(-c4cccnc4)c3)C(=O)O[C@]12C` [TELITHROMYCIN] had a Cmax in data set [1] of 800 ng/mL. For the same molecule, the area under the curve AUC(0-inf) in data set [2] was found to be 3090 ng·h/mL. Further, the half-life in data set [4] was 2.13 h; in data set [5], 6.68 h.

Molecule `CC[C@H]1OC(=O)[C@H](C)[C@@H](O[C@H]2C[C@@](C)(OC)[C@@H](O)[C@H](C)O2)[C@H](C)[C@@H](O[C@@H]2O[C@H](C)C[C@H](N(C)C)[C@H]2O)[C@](C)(O)C[C@@H](C)C(=O)[C@H](C)[C@@H](O)[C@]1(C)O` [ERYTHROMYCIN] returned a Cmax in data set [6] of 2000 ng/mL. Further, the AUC(0-inf) in data set [7] worked out at 7700 ng·h/mL.

`CC[C@H]1OC(=O)[C@H](C)[C@@H](O[C@H]2C[C@@](C)(OC)[C@@H](O)[C@H](C)O2)[C@H](C)[C@@H](O[C@@H]2O[C@H](C)C[C@H](N(C)C)[C@H]2O)[C@](C)(O)C[C@@H](C)CN(C)[C@H](C)[C@@H](O)[C@]1(C)O` [AZITHROMYCIN]: in data set [7], the AUC(0-inf) is 3390 ng·h/mL. Also, in data set [8], the half-life is 35 h.
